The experiment deals with T1, human F508del CFTR (Homo sapiens, UniProt P13569, DEL508-508).
T1 construct: expressed in transfected cells
Description: CFTR-YFP Assay, CFTR Corrector Protocol (YFP flux assay). The experiment is classed as cell-based. The note with it: for Emax: normalized to the positive control, read-out: EMAX (% Efficacy, EMAX normalized to the positive control).

The structures appear in SMILES notation.

T1 sequence (P13569 with tags, fused parts or gaps DEL508-508): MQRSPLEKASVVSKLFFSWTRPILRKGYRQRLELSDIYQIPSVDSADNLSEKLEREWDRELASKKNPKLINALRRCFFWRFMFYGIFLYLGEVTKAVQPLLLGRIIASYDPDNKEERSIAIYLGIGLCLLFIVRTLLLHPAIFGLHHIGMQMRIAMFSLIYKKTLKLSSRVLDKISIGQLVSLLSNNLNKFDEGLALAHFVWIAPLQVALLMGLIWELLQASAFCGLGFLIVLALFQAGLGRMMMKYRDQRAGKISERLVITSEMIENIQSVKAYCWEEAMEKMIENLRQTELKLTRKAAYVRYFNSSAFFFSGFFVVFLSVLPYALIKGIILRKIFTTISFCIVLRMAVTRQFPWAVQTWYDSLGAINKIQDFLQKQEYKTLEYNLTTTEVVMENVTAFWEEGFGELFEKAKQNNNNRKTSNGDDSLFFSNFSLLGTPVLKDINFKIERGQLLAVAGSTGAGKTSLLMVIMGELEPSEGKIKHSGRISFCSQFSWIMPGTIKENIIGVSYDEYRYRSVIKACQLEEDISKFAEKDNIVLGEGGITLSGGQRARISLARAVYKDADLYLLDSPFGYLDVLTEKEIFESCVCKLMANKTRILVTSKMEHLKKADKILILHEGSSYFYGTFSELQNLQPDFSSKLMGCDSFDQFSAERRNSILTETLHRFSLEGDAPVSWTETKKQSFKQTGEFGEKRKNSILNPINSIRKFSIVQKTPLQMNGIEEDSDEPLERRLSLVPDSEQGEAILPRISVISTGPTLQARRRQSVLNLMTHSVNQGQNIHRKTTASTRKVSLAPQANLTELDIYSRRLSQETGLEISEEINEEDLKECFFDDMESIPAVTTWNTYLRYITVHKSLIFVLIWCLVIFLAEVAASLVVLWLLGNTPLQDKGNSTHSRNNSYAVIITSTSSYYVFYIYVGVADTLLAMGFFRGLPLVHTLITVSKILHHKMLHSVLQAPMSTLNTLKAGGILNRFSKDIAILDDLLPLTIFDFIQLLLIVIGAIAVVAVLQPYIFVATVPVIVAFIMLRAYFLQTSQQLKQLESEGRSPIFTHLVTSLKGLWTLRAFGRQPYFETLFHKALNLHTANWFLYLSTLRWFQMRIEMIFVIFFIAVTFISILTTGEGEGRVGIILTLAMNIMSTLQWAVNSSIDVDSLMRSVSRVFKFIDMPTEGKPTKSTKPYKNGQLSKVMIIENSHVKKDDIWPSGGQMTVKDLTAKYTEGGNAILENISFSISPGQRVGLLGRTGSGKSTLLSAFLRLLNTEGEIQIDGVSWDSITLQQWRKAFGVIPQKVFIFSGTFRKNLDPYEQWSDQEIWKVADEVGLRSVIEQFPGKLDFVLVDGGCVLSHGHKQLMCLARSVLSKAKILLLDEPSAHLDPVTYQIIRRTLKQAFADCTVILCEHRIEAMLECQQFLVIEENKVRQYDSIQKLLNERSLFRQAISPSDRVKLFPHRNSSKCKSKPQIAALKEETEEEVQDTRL

In general, EC50 refers to the concentration at which the effect is half-maximal. Low values mean an effect from little substance, high ones a need for much substance. The Emax is the maximal effect, on the per cent scale that the assay sets. With `CC(=O)N1c2ccc(S(=O)(=O)N3CCC(n4c(-c5ccc(F)cc5F)nc5cccnc54)CC3)cc2CC1C` (stereo not shown) [Example 146], the concentration for a half-maximal effect (EC50) was less than 10 µM and the maximal effect (Emax) fell in the range of 10 to 30%.

For the compound `Cc1cc2cc(S(=O)(=O)N3CCC(n4c(-c5ccncn5)nc5cccnc54)CC3)ccc2[nH]1` [Example 147], the concentration for a half-maximal effect (EC50) is less than 10 µM and the Emax was 10 to 30%.

For the compound `CC1Cc2cc(S(=O)(=O)N3CCC(n4c(-c5ccncc5F)nc5cccnc54)CC3)ccc2N1` (stereo not shown) [Example 148], the EC50 was less than 10 µM and the Emax lay in the range of 10 to 30%.

For `CC1Cc2cc(S(=O)(=O)N3CCC(n4c(-c5ccc(F)cc5F)nc5cccnc54)CC3)ccc2N1` (stereo not shown) [Example 149], the EC50 was less than 10 µM and the Emax lay in the range of 10 to 30%.

Consider `COc1ccc2c(c1)nc(-c1ccncc1F)n2C1CCN(S(=O)(=O)c2ccc3c(c2)OC(F)(F)O3)CC1` [Example 150], for which the EC50 was in the range of 10 to 20 µM and the Emax was in the range of 30 to 80%.

In the case of `CCc1ccc(S(=O)(=O)N2CCC(n3c(-c4ccncc4F)nc4cc(OC)ccc43)CC2)cc1` [Example 151], the concentration giving a half-maximal response (EC50) is less than 10 µM and the Emax lay within 30 to 80%.

In the case of `CC(=O)N1c2ccc(S(=O)(=O)N3CCC(n4c(-c5ccncn5)nc5cccnc54)CC3)cc2CC1C` (stereo not shown) [Example 152], the EC50 is 10 to 20 µM and the Emax is 10 to 30%.

Take `COc1ccc2c(c1)nc(-c1ccccc1Cl)n2C1CCN(S(=O)(=O)c2ccc3c(c2)OC(F)(F)O3)CC1` [Example 153]: the EC50 was less than 10 µM and the Emax lay within 30 to 80%.

With `COc1ccc2c(c1)nc(-c1ccncc1Cl)n2C1CCN(S(=O)(=O)c2ccc3c(c2)OC(F)(F)O3)CC1` [Example 154], the concentration for a half-maximal effect (EC50) was less than 10 µM and the maximal response (Emax) lay within 30 to 80%.

As for `CCc1ccc(S(=O)(=O)N2CCC(n3c(-c4ccccc4Cl)nc4cc(OC)ccc43)CC2)cc1` [Example 155], the EC50 is less than 10 µM and the maximum response (Emax) is 30 to 80%.

As for `CCc1ccc(S(=O)(=O)N2CCC(n3c(-c4ccncc4Cl)nc4cc(OC)ccc43)CC2)cc1` [Example 156], the EC50 is less than 10 µM and the maximal response (Emax) is 30 to 80%.

On to `O=S(=O)(c1ccc2snc(Cl)c2c1)N1CCC(n2c(-c3ccncc3Cl)nc3cccnc32)CC1` [Example 157], for which the half-maximal effective concentration (EC50) is less than 10 µM and the maximal effect (Emax) is 10 to 30%.

`O=S(=O)(c1ccc2snc(Cl)c2c1)N1CCC(n2c(-c3ccncc3F)nc3cccnc32)CC1` [Example 158]: the concentration for a half-maximal effect (EC50) was 10 to 20 µM and the Emax was 10 to 30%.

In the case of `O=S(=O)(c1ccc2snc(Cl)c2c1)N1CCC(n2c(-c3ccc(F)cc3F)nc3cccnc32)CC1` [Example 159], the 50% effective concentration (EC50) is less than 10 µM and the maximal response (Emax) is 10 to 30%.

Take `COc1ccc2c(c1)nc(-c1ccncc1Cl)n2C1CCN(S(=O)(=O)c2ccc3nc(C)oc3c2)CC1` [Example 160]: the EC50 is less than 10 µM and the Emax lay within 30 to 80%.

Turning to `O=S(=O)(c1ccc2cc[nH]c2c1)N1CCC(n2c(-c3ccncc3Cl)nc3cccnc32)CC1` [Example 161], the concentration giving a half-maximal response (EC50) lay within 10 to 20 µM and the Emax was 10 to 30%.

`O=S(=O)(c1ccc2cc[nH]c2c1)N1CCC(n2c(-c3ccncc3F)nc3cccnc32)CC1` [Example 162]: the EC50 was less than 10 µM and the maximum response (Emax) lay in the range of 10 to 30%.

Consider `COc1ccc2c(c1)nc(-c1ccncc1F)n2C1CCN(S(=O)(=O)c2ccc3nc(C)oc3c2)CC1` [Example 163], for which the EC50 is less than 10 µM and the Emax is greater than 80%.

On to `COc1ccc2c(c1)nc(-c1ccc(F)cc1F)n2C1CCN(S(=O)(=O)c2ccc3nc(C)oc3c2)CC1` [Example 164], for which the EC50 was less than 10 µM and the Emax was greater than 80%.

For the compound `Cc1ccnc2c1nc(-c1ccncc1F)n2C1CCN(S(=O)(=O)c2ccc3c(c2)OC(F)(F)O3)CC1` [Example 165], the EC50 is less than 10 µM and the Emax was 30 to 80%.

On to `Cc1ccnc2c1nc(-c1ccncc1Cl)n2C1CCN(S(=O)(=O)c2ccc3c(c2)OC(F)(F)O3)CC1` [Example 166], for which the EC50 was less than 10 µM and the Emax lay within 30 to 80%.

Take `CCc1ccc(S(=O)(=O)N2CCC(n3c(-c4ccccc4Cl)nc4cc(O)ccc43)CC2)cc1` [Example 167]: the concentration for a half-maximal effect (EC50) is greater than 20 µM and the Emax was in the range of 10 to 30%.

Take `CCc1ccc(S(=O)(=O)N2CCC(n3c(-c4ccncc4Cl)nc4cc(O)ccc43)CC2)cc1` [Example 168]: the EC50 was less than 10 µM and the Emax lay in the range of 30 to 80%.

On to `CCc1ccc(S(=O)(=O)N2CCC(n3c(-c4ccncc4F)nc4c(OC)ccnc43)CC2)cc1` [Example 169], for which the EC50 was less than 10 µM and the Emax was in the range of 30 to 80%.

On to `CCc1ccc(S(=O)(=O)N2CCC(n3c(-c4ccncc4Cl)nc4c(OC)ccnc43)CC2)cc1` [Example 170], for which the EC50 was greater than 20 µM and the maximum response (Emax) was 10 to 30%.

In the case of `COc1ccc(S(=O)(=O)N2CCC(N(C(=O)c3ccccc3)c3ccccn3)CC2)cc1F` [Example 171], the half-maximal effective concentration (EC50) was less than 10 µM and the Emax was 10 to 30%.

For the compound `COc1ccc(S(=O)(=O)N2CCC(N(C(=O)c3ccccc3)c3cccc(C)n3)CC2)cc1Cl` [Example 174], the 50% effective concentration (EC50) was greater than 20 µM and the maximal effect (Emax) was 10 to 30%.

In the case of `CCc1ccc(S(=O)(=O)N2CCC(N(C(=O)Nc3ccccc3Cl)c3cccc(C)n3)CC2)cc1` [Example 175, 3-(2-chlorophenyl)-1-(1-((4-ethylphenyl)sulfonyl)piperidin-4-yl)-1-(6-methylpyridin-2-yl)urea], the concentration for a half-maximal effect (EC50) is less than 10 µM and the maximal effect (Emax) lay within 10 to 30%.

Turning to `COc1ccc(S(=O)(=O)N2CCC(N(C(=O)Nc3ccccc3Cl)c3cccc(C)n3)CC2)cc1Cl` [Example 176], the concentration for a half-maximal effect (EC50) was less than 10 µM and the Emax was in the range of 10 to 30%.

Take `CCc1ccc(S(=O)(=O)N2CCC(N(C(=O)Nc3ccccc3Cl)c3ccccn3)CC2)cc1` [Example 177]: the concentration giving a half-maximal response (EC50) was less than 10 µM and the Emax lay in the range of 10 to 30%.

Take `COc1ccc(S(=O)(=O)N2CCC(N(C(=O)Nc3ccccc3Cl)c3ccccn3)CC2)cc1Cl` [Example 178]: the EC50 is less than 10 µM and the Emax fell in the range of 10 to 30%.

Turning to `CCc1ccc(S(=O)(=O)N2CCC(N(C(=O)Nc3ccccc3)c3cccc(C)n3)CC2)cc1` [Example 179], the EC50 was less than 10 µM and the Emax was in the range of 10 to 30%.

With `CCc1ccc(S(=O)(=O)N2CCC(N(C(=O)Nc3ccccc3)c3ccccn3)CC2)cc1` [Example 180], the concentration giving a half-maximal response (EC50) is 10 to 20 µM and the maximal effect (Emax) was in the range of 10 to 30%.

Turning to `CCc1ccc(S(=O)(=O)N2CCC(N(c3ccccn3)S(=O)(=O)c3ccccc3)CC2)cc1` [Example 181], the 50% effective concentration (EC50) was less than 10 µM and the maximal effect (Emax) lay in the range of 30 to 80%.

Consider `CCc1ccc(S(=O)(=O)N2CCC(N(c3ccccn3)S(=O)(=O)c3ccccc3Cl)CC2)cc1` [Example 182], for which the 50% effective concentration (EC50) is less than 10 µM and the maximal effect (Emax) was in the range of 10 to 30%.

Take `CCc1ccc(S(=O)(=O)N2CCC(N(c3ccccn3)S(=O)(=O)c3c(C)cc(C)cc3C)CC2)cc1` [Example 183]: the concentration for a half-maximal effect (EC50) was less than 10 µM and the Emax was 30 to 80%.

For the compound `COc1ccc(S(=O)(=O)N2CCC(N(c3ccccn3)S(=O)(=O)c3c(C)cc(C)cc3C)CC2)cc1Cl` [Example 184], the EC50 is less than 10 µM and the Emax was 10 to 30%.

For the compound `Cc1cc(C)c(S(=O)(=O)N(c2ccccn2)C2CCN(S(=O)(=O)c3ccc4c(c3)OC(F)(F)O4)CC2)c(C)c1` [Example 185], the EC50 was less than 10 µM and the maximal effect (Emax) fell in the range of 30 to 80%.

The record behind these values is patent publication US9944603B2, “Compounds and methods for the treatment of cystic fibrosis” (Flatley Discovery Lab, LLC, priority 2013, dated 2018).
